# Test results reported in ChEMBL document CHEMBL1201862, “PubChem BioAssay data set” (2004).
# Calls of active or inactive are those of the source.
# What was measured:
# [1] = molecular target: T1, Calpain-2 catalytic subunit (Sus scrofa, UniProt P43367); assay: pig calpain II inhibitor potency, dose response, biochemical, fluorogenic peptide substrate (AID 1420); assay type: functional
# T1 sequence (P43367 whole entry): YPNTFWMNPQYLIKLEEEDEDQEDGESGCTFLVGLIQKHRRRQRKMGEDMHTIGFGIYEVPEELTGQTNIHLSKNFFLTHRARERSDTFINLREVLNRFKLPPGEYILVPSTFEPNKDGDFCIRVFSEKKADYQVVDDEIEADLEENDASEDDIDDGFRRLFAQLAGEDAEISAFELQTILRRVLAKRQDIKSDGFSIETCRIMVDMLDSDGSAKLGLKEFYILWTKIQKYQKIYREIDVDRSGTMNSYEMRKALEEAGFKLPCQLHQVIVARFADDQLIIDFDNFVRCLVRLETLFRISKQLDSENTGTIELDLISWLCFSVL
# [2] = Luminescence Cell-Based Dose Confirmation HTS to Identify Activators of 5'UTR Stem-Loop Driven Alpha-Synuclein mRNA Translation in H4 Neuroglioblastoma Cells. [Related pubchem assays: 1829 (Project Summary), 1814 (Primary HTS)]; assay type: functional
# [3] = Luminescence Cell-Based Dose Response HTS to Identify Activators of Luciferase Translation or Activity in H4 […] Cells. [Related pubchem assays: 1829 (Project Summary), 1814 (Primary HTS)]; assay type: functional
# H4 = assay: Luminescence Cell-Based Dose Response HTS to Identify Activators of 5'UTR Stem-Loop Driven Prion Protein mRNA Translation in H4 Neuroglioblastoma Cells. [Related pubchem assays: 1829 (Project Summary), 1814 (Primary HTS)]; assay type: functional; conditions: Homo sapiens
# cells [4] = assay type: functional, cell-based
# cells [5] = assay type: functional, cell-based; remark: listed apart in the source
# [6] = tested on: Streptococcus sp. 'group A'; assay: growth inhibition of control SK(-) GAS strain, dose response, counter-screen for streptokinase expression inhibitor project, luminescence, kanamycin, BacTiterGlo, confirmation (AID 1900); assay type: functional, organism-based
# Streptokinase A = molecular target: T2, Streptokinase A (Streptococcus pyogenes serotype M1, UniProt P10520); assay: S. pyogenes streptokinase expression inhibitors, potency, dose response, plasminogen activation absorbance, OD405 (AID 1914); assay type: functional, Streptococcus pyogenes M1 GAS;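 also: secreted streptokinase activity via plasminogen activation per viability signal from cell pellet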
# T2 sequence (P10520 whole entry): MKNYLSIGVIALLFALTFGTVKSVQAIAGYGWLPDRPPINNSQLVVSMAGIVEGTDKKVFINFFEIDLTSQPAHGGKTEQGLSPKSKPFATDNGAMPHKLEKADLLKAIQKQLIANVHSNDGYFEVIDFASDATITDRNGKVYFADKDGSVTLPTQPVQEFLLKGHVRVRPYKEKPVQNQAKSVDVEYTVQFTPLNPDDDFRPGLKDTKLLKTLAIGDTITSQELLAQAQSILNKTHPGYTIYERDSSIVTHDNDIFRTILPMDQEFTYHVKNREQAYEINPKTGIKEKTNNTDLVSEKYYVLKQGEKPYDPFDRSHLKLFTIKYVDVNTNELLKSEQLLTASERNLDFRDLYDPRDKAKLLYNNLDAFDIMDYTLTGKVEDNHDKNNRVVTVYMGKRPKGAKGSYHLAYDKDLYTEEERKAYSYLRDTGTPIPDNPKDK
# [7] = inhibitors of intracellular T. cruzi replication, confirmation, NIH3T3 host cells, beta-gal luminescence (AID 2044); assay type: functional, cell-based;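 also: intracellular parasites grown in NIH/3T3 mouse fibroblasts as host cells; luminescent beta-galactosidase reporter signal from transgenic T. cruzi replicating inside host cells; inhibitors lower the luminescence signal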
# [8] = cytotoxicity toward NIH3T3 fibroblasts, dose response, counter-screen, cell-based, ATP luminescence, mouse fibroblasts (AID 2010); assay type: functional;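 also: cells exposed to compound for about 90 hours before reading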
# Streptococcus = assay: Group A Streptococcus viability loss, dose response, counter-screen for streptokinase expression inhibitor project, luminescence, BacTiterGlo (AID 1915); assay type: functional, organism-based;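 also: potency for reduction of bacterial viability or growth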
# [9] = AlphaScreen signal interference compounds, dose response, artefact control for ARNT-TACC3 interaction inhibitor project, biochemical, luminescence, cherry-pick (AID 651705); assay type: functional;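 also: AlphaScreen bead proximity signal that flags compounds interfering with the detection technology; potency reflects signal decrease which marks the compound as an assay artifact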
# [10] = molecular target: Glyceraldehyde-3-phosphate dehydrogenase (Homo sapiens, UniProt P04406)
# [11] = molecular target: T3, DNA repair and recombination protein RAD54-like (Homo sapiens, UniProt Q92698); assay: inhibitors of human RAD54 branch migration, confirmation, biochemical, fluorescence, cherry-picked samples, dose series (AID 651657); assay type: functional
# T3 sequence (Q92698 whole entry): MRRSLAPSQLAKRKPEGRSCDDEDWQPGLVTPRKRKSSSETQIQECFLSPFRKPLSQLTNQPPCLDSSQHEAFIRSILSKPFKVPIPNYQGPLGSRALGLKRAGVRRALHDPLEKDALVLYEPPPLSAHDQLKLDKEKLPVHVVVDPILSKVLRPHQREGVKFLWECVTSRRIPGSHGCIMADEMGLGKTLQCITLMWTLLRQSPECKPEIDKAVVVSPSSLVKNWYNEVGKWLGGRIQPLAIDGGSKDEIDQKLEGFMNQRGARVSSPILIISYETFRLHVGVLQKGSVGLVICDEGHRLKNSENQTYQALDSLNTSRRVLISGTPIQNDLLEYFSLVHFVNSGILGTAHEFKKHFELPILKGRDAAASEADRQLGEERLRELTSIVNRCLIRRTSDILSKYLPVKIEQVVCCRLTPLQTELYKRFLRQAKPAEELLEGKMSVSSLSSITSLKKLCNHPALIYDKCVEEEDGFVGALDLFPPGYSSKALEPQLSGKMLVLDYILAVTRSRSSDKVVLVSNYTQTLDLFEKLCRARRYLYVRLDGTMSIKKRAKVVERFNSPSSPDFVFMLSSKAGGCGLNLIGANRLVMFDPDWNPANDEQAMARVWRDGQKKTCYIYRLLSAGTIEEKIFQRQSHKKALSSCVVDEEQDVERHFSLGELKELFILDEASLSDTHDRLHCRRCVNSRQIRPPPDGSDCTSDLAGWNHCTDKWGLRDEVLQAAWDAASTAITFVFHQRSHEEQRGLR
# [12] = molecular target: T4, DNA repair protein RAD52 homolog (Homo sapiens, UniProt P43351); assay type: functional, biochemical
# T4 sequence (P43351 whole entry): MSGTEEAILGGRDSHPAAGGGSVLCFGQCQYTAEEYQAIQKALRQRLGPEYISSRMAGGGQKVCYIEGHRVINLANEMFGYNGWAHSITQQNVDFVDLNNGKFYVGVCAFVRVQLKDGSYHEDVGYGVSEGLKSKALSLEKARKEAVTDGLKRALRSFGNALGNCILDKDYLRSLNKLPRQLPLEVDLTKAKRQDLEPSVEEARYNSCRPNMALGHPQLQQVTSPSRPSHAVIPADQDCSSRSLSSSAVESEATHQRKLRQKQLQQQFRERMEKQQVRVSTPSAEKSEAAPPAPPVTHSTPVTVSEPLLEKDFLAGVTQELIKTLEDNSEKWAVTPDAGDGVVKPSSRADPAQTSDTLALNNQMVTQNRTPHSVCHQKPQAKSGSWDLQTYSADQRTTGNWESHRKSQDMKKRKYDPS
# [13] = growth suppression of PTEN-null colon cells, dose response, cell-based, HCT116 PTEN knockout (AID 1047); assay type: functional;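 also: HCT116 colon tumor cells with PTEN knocked out; cells exposed to compound for 60 hours before readout; potency for loss of cell viability measured by luminescence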
# [14] = molecular target: T5, Mannose-6-phosphate isomerase (Homo sapiens, UniProt P34949); assay: human PMI inhibitors, high substrate, primary screen, biochemical, fluorescence intensity, high mannose 6-phosphate (AID 1220)
# T5 sequence (P34949 whole entry): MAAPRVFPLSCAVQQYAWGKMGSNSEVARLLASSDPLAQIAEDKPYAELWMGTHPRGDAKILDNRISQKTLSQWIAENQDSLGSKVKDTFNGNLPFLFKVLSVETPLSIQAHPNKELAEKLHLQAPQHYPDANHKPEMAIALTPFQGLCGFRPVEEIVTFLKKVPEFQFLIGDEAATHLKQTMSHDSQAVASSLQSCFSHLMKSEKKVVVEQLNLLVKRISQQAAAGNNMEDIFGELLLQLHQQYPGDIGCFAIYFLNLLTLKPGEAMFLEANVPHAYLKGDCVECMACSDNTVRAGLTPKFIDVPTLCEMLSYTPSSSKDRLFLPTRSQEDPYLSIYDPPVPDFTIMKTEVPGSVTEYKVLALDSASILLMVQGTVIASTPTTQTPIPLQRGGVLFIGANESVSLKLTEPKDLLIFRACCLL
# [15] = molecular target: T6, Replicative DNA helicase DnaB (Mycobacterium tuberculosis, UniProt P9WMR3); assay: DnaB intein splicing inhibitors, dose response, biochemical, cell-free fluorescence (AID 449749); assay type: functional
# T6 sequence (P9WMR3 whole entry): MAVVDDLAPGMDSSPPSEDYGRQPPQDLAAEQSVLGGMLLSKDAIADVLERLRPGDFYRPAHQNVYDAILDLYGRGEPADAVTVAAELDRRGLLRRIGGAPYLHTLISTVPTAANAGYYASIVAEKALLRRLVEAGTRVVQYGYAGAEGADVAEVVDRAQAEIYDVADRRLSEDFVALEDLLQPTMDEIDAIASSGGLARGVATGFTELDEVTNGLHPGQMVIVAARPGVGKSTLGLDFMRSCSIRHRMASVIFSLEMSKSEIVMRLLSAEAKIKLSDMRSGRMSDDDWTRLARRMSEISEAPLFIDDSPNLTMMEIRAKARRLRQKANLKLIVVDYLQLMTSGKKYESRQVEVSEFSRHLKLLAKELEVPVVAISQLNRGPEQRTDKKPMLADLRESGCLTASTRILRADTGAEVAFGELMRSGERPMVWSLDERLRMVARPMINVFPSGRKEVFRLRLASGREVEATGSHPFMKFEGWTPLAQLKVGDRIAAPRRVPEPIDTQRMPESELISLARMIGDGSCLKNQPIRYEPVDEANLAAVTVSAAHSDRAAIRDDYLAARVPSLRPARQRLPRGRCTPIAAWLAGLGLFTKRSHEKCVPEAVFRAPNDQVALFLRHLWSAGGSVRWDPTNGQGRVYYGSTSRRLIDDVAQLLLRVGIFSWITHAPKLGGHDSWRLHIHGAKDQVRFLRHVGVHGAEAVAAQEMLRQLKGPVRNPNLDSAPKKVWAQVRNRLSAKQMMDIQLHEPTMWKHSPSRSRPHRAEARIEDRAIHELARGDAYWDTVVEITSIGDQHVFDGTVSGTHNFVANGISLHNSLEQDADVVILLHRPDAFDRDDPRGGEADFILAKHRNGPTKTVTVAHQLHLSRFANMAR
# Protein RecA = molecular target: T7, Protein RecA (Mycobacterium tuberculosis, UniProt P9WHJ3); assay: Fluorescence Cell-Free Homogeneous Dose Retest to Identify Inhibitors of RecA-Intein Splicing Activity. [Related pubchem assays (depositor defined):AID2097, AID2223, AID489010, AID492950]; assay type: functional
# T7 sequence (P9WHJ3 whole entry): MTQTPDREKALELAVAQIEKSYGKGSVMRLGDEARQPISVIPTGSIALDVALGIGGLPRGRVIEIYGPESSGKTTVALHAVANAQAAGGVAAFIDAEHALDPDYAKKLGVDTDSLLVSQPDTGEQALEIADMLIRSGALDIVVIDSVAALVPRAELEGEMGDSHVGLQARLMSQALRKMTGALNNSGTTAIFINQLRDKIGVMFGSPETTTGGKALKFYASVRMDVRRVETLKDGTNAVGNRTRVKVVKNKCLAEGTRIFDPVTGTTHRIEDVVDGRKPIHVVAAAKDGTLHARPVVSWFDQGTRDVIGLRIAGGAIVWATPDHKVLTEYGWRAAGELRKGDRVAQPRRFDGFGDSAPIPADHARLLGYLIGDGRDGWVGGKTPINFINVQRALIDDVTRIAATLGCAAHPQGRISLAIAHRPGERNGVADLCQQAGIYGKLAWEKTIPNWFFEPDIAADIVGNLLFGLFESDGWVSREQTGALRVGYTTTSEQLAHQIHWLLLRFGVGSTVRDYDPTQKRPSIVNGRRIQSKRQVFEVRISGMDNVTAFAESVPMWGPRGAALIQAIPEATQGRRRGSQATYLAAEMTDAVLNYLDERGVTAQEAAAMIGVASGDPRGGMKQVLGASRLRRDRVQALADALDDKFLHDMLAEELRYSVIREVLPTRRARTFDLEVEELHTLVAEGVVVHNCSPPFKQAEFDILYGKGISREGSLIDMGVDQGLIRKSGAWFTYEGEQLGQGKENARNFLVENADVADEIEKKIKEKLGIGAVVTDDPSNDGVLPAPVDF
# Chain of Glyceraldehyde-3-phosphate dehydrogenase (P04406 whole entry): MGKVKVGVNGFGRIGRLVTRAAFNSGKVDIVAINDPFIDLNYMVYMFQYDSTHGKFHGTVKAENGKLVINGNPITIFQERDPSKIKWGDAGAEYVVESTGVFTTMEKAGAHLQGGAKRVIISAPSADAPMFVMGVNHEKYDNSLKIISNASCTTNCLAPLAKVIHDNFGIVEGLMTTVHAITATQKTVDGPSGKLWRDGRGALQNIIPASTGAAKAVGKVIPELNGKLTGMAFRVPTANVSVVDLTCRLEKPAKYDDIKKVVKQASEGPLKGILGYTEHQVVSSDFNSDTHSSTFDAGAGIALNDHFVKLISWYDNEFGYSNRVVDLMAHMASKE
compound,measurement,setting,value
O=C(/C=C/c1ccc([N+](=O)[O-])cc1)NCCSc1ccccc1,IC50,[1],15.9 µM (not active)
c1ccc(CCN2CN=C(Nc3nc4ccccc4o3)NC2)cc1,EC50,[2],14.3 µM (active)
same,EC50,[3],8.35 µM (active)
same,EC50,H4,17.3 µM (active)
same,IC50,cells [4],> 29.9 µM (inactive)
same,EC50,cells [5],> 29.9 µM (inactive)
CSCc1cc(N(C)c2ccccc2)nc(-c2ccccn2)n1,EC50,[6],6.57 µM (active)
same,EC50,Streptokinase A,> 150 µM (not active)
same,EC50,[7],1.89 µM (active)
same,EC50,[8],> 60 µM (not active)
same,EC50,Streptococcus,25 µM (active)
same,AC50,[9],108 µM (active)
CCCCOC(=O)c1ccc(S(N)(=O)=O)o1,IC50,[10],> 100 µM (not active)
CCN(CC)CCCNC(=O)c1cc2c(O)nc3ccc(C)cc3c2s1,AC50,[11],62.4 µM (active)
same,AC50,[12],21.5 µM (active)
COC(=O)c1cn(NC(=O)c2cc(OC)c(OC)c(OC)c2)c(=O)c2ccccc12,EC50,[13],41.4 µM (active)
COc1ccc(Nc2nc3nc(O)cc(O)c3s2)cc1,IC50,[14],> 50 µM (not active)
Cc1sc(NC(=S)NC(=O)c2cccs2)nc1-c1ccc(C(C)C)cc1,IC50,[1],26 µM (not active)
Oc1ncc(NCCc2ccccc2)c(O)n1,IC50,cells [4],> 29.9 µM (inactive)
same,EC50,cells [5],> 29.9 µM (inactive)
O=C(CN(C(=O)CSc1nnc(COc2ccccc2)o1)c1ccc(F)cc1)NC1CCCCC1,IC50,[1],3.19 µM (not active)
COc1ccc(-c2cnc3c(NC(C)=O)cc(-c4cccc(C(=O)NCCN(C)C)c4)cn23)cc1OC,AC50,[11],15.2 µM (active)
same,AC50,[12],2.33 µM (active)
Cc1ccsc1-c1cc2nc(NCCCN(C)C)n(C)c(=O)c2s1,AC50,[11],47 µM (active)
same,AC50,[12],9.79 µM (active)
Cn1c(NCCN2CCCC2)nc2cc(-c3ccccc3)sc2c1=O,AC50,[11],39.3 µM (active)
same,AC50,[12],16.2 µM (active)
C/C(CC(=O)N1CCN(C=O)CC1)=N\NC(=O)c1cc2ccccc2cc1O,IC50,[14],42.5 µM (active)
Nc1ccc2ncccc2c1,IC50,[14],> 50 µM (not active)
same,AC50,[15],6.42 µM (active)
same,EC50,Protein RecA,5.95 µM (active)
